Columns and labels:
[1] = tested on: HEK293 cells treated with HOPAN; experiment: Rescue of HEK293 cells in HOPAN induced PKAN model; format: cell-based, human; conditions: 100 μM, HOPAN 0.5 mM, 4 days, HEK293, vitamin B5 deficient DMEM
Method: Similar to Drosophila-S2 cells, the PKAN disease model can also be induced using HOPAN in mammalian cell lines. Rescue efficiency of (S)-acetyl-4′-phosphopantetheine and 4′-phosphopantetheine was studied in HOPAN induced PKAN model system, namely in mammalian HEK293 cells.
Materials and Methods: HEK293 cells were cultured in vitamin B5 deficient DMEM (Thermo Scientific) supplemented with 10% dialysed FCS (Thermo Scientific) with and without HOPAN (0.5 mM) and (S)-acetyl-4′-phosphopantetheine and 4′-phosphopantetheine for 4 days. 100 μM of (S)-acetyl-4′-phosphopantetheine and 4′-phosphopantetheine was compared for its rescue efficiency.

[2] = tested on: Human HEK293 cells; experiment: Cellular toxicity (drop in cell counts) in HEK293 cells; format: cell-based; conditions: increasing concentrations
[3] = tested on: dPANK/fbl down-regulated Drosophila-S2 cells; experiment: Rescue of cell survival in dPANK/fbl RNAi Drosophila S2 cells (PKAN cell model); format: cell-based; conditions: 100 μM; for rescue of cell count defect (cell survival): triplicate
Excerpt: The down-regulation of […] ortholog in Drosophila) using RNAi approach in Drosophila S2 cells is an established in-vitro PKAN disease model (Rana, A. et al., PNAS, 2010, 107, 6988; Siudja et al., EMBO Mol med. 2011, 3, 755; Siudeja et al., PLoS One 2012, 7, e443145). Down-regulation of dPANK/fbl by RNAi, causes a decrease in the survival of cells. […] Materials and Methods: […]

[4] = tested on: Drosophila-S2 cells treated with HOPAN; experiment: Rescue in HOPAN assay, Drosophila S2 cells; format: cell-based; conditions: 100 μM, HOPAN 0.5 mM, two days
Method: In an additional experiment, Drosophila-S2 cells treated with the chemical inhibitor HOPAN (hopanthenate, CAS 17097-76-6, IUPAC: calcium 4-[[(2R)-2,4-dihydroxy-3,3-dimethylbutanoyl]amino]butanoate). Cells treated with HOPAN also serve as a model for PKAN. Cells treated with HOPAN also show a reduction in cell viability.
Materials and Methods: Drosophila Schneider's S2 cells were cultured and subjected to HOPAN (0.5 mM) treatment with and without (S)-acetyl-4′-phosphopantetheine and 4′-phosphopantetheine for two days (Siudeja. K. et al., EMBO Mol Med. 2011, 3, 755). 100 μM of (S)-acetyl-4′-phosphopantetheine and 4′-phosphopantetheine was compared for its rescue efficiency.

[5] = tested on: protein acetylation; experiment: Rescue of protein acetylation defect in PKAN models; format: cell-based
Excerpt: For a variety of diseases HDAC inhibitors are being used and specifically the valproic acid is currently used in diseases ranging from cancer, to epilepsy, to neurodegeneration. The disadvantage is that valproic acid has severe side effects.

Row | Compound | reduction of HOPAN induced cell count defect [1] | toxicity (drop in cell counts) [2] | rescue potential compared to the other compounds [3] | rescue of cell count defect (cell survival) [3] | rescue of HOPAN induced cell count defect [4] | rescue of protein acetylation defect [5]
1 | (S)-acetyl-4′-phosphopantetheine | significantly reduced the HOPAN induced cell count defect | less toxic compared to pantethine | superior rescue potential as compared to pantethine and 4′-phosphopantetheine | rescued the cell count defect significantly | significantly rescued | 
2 | CCCC(CCC)C(=O)O [valproic acid] |  |  |  |  |  | rescue the protein acetylation defect
3 | CC(C)(COP(=O)(O)O)[C@@H](O)C(=O)NCCC(=O)NCCS [4′-phosphopantetheine] | significantly reduced the HOPAN induced cell count defect | less toxic compared to pantethine |  | rescued the cell count defect significantly |  | 
4 | CC(/C=C/C(=O)NO)=C\[C@@H](C)C(=O)c1ccc(N(C)C)cc1 [Trichostatin A] |  |  |  |  |  | rescue the protein acetylation defect

From patent publication US9963472B2, “Stable pantetheine derivatives for the treatment of pantothenate kinase associated neurodegeneration (PKAN) and methods for the synthesis of such compounds” (ACIES BIO D.O.O., priority 2013, dated 2018)
